Assay results reported in article PMC11882969 (Nature Communications, 2025).
Several values for one entry are separate records, joined by “and”; a condition that tells them apart may be missing. Identical values can stand only once. Like-named read-outs stand apart in the source and are kept apart here.

Tests used:
CB1 (rCB1) = CB1 (rCB1) (Rattus norvegicus, UniProt P20272); test: Radioligand competition binding, [3H]-CP-55,940, rat brain membranes
hCB1 = hCB1 (Homo sapiens, UniProt P21554); test: bioSensAll ebBRET signaling profiling, hCB1; assay type: cell-based; design: host or cells: HEK293SL cells, transient PEI transfection; settings: for Gi1 hCB1 response: Gi1 biosensor; for Gi1 hCB1 / GoB hCB1: single replicate values, FigS6a; for Emax [95% CI]: normalized to CP-55,940; for EC50: read-out: EC50 [95% CI]
Sequence of hCB1 (P21554 whole entry): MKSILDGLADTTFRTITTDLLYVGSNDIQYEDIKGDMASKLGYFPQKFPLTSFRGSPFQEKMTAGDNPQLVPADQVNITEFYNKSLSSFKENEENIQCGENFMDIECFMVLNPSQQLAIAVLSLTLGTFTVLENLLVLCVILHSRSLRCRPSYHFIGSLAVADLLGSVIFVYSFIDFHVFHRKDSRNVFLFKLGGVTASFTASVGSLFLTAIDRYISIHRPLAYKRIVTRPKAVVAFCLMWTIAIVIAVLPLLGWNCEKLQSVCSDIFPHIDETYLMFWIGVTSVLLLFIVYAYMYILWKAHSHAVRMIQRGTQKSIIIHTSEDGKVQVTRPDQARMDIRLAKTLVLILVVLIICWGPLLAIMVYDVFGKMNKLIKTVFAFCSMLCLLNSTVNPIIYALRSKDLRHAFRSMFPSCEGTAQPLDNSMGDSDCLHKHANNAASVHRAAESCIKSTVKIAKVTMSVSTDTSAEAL

Sequence of CB1 (rCB1) (P20272 whole entry): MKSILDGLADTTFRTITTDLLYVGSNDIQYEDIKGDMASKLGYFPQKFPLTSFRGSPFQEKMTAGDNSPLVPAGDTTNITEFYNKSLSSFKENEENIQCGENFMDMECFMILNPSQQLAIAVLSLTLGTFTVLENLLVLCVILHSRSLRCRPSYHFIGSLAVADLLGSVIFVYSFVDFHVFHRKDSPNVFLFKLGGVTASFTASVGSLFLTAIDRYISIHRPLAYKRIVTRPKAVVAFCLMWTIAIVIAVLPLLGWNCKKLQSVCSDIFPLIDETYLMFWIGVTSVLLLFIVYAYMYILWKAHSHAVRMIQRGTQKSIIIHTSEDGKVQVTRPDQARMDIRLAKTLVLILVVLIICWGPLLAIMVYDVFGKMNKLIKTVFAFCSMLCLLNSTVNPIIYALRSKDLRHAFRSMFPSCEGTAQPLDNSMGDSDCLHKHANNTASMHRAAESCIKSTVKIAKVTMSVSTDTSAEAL

## COC(=O)[C@@H]1[C@@H]2CC[C@@H]2CN1C(=O)c1cc(C)n(-c2cccc(C(F)(F)F)c2)n1 [‘6448]
CB1 (rCB1); rCB1
  pKi [95% CI]: 6.1 [5.9 – 6.3]
CB1 (rCB1); read-out: Ki [95% CI], rCB1, [3H]-CP-55,940
  Ki: 866 nM
hCB1; Log [Compound] (M) -4.22186
  Gi1 hCB1 response: 143.498
  Gi1 hCB1: 89.2431
  GoB hCB1: 86.7412
hCB1; Log [Compound] (M) -4.63927
  Gi1 hCB1 response: 116.752
  Gi1 hCB1: 88.0098
  GoB hCB1: 85.932
hCB1; Log [Compound] (M) -5.05788
  Gi1 hCB1 response: 114.537
  Gi1 hCB1: 83.6623
  GoB hCB1: 87.6943
hCB1; Log [Compound] (M) -5.47381
  Gi1 hCB1 response: 101.197
  Gi1 hCB1: 80.8256
  GoB hCB1: 88.7014
hCB1; Log [Compound] (M) -5.89285
  Gi1 hCB1 response: 80.4274
  Gi1 hCB1: 71.5911
  GoB hCB1: 74.7104
hCB1; Log [Compound] (M) -6.31878
  Gi1 hCB1 response: 64.6261
  Gi1 hCB1: 53.785
  GoB hCB1: 55.1804
hCB1; Log [Compound] (M) -6.72585
  Gi1 hCB1 response: 36.0226
  Gi1 hCB1: 28.6559
  GoB hCB1: 28.2594
hCB1; Log [Compound] (M) -7.14267
  Gi1 hCB1 response: 33.4711
  Gi1 hCB1: 11.4665
  GoB hCB1: 15.0956
hCB1; Log [Compound] (M) -7.55284
  Gi1 hCB1 response: 2.182
  Gi1 hCB1: 4.6215
  GoB hCB1: 3.137
hCB1; Log [Compound] (M) -8
  Gi1 hCB1 response: -1.914
  Gi1 hCB1: 2.093
  GoB hCB1: 2.004
hCB1; Log [Compound] (M) -8.22186
  Gi1 hCB1 response: -2.63
  Gi1 hCB1: -0.06514
  GoB hCB1: -3.751
hCB1; Log [Compound] (M) -8.39794
  Gi1 hCB1 response: -2.8987
  Gi1 hCB1: 1.1836
  GoB hCB1: 1.464
hCB1; Log [Compound] (M) -8.68787
  Gi1 hCB1 response: 4.689
  Gi1 hCB1: -1.113
  GoB hCB1: -5.28
hCB1; Log [Compound] (M) -9.15521
  Gi1 hCB1 response: 0.03327
  Gi1 hCB1: -0.1114
  GoB hCB1: -2.294
hCB1; Log [Compound] (M) -9.61989
  Gi1 hCB1 response: -4.421
  Gi1 hCB1: 0.7519
  GoB hCB1: -1.629
hCB1; Log [Compound] (M) -10.0969
  Gi1 hCB1 response: -3.391
  Gi1 hCB1: 0.8753
  GoB hCB1: -3.751
hCB1; Log [Compound] (M) -10.5529
  Gi1 hCB1 response: -11.5156
  Gi1 hCB1: 1.9236
  GoB hCB1: -0.9636
hCB1; Log [Compound] (M) -11.0177
  Gi1 hCB1 response: -16.4171
  Gi1 hCB1: -0.281
  GoB hCB1: -2.384
hCB1; Log [Compound] (M) -11.4949
  Gi1 hCB1 response: -6.8826
  Gi1 hCB1: -0.1268
  GoB hCB1: -1.305
hCB1; Log [Compound] (M) -11.9208
  Gi1 hCB1 response: -5.674
  Gi1 hCB1: -0.1885
  GoB hCB1: 1.266
hCB1; Log [Compound] (M) -12.3979
  Gi1 hCB1 response: -5.204
  Gi1 hCB1: 1.723
  GoB hCB1: 0.7628
hCB1; Log [Compound] (M) -12.8861
  Gi1 hCB1 response: 5.741
  Gi1 hCB1: 0.4436
  GoB hCB1: -2.798
hCB1; Log [Compound] (M) -13, individual replicate values
  Gi1 hCB1 response: -12.366 and -4.51
hCB1; Log [Compound] (M) -13
  Gi1 hCB1: 0.1969 and 0.2278
  GoB hCB1: 1.32 and 1.356
hCB1; hCB1 Gi1
  pEC50 [95% CI]: 6.5 [6.4 – 6.5]
  Emax [95% CI]: 87 [86 – 88]
  EC50: 345 nM
hCB1; hCB1 GoB
  pEC50 [95% CI]: 6.5 [6.4 – 6.6]
  Emax [95% CI]: 90 [87 – 91]
  EC50: 310 nM
hCB1; hCB1 Gz
  pEC50 [95% CI]: 6.1 [5.9 – 6.4]
  Emax [95% CI]: 151 [130 –172]
  EC50: 728 nM
